Measurements published in article PMC11953442, “PIP2-mediated oligomerization of the endosomal sodium/proton exchanger NHE9” (Nature Communications, 2025).

Assays:
[1] = target: T1, EcNhaA-mut2 (Escherichia coli, UniProt P13738, A109T/Q277G/L296M); experiment: cryo-EM structure; format: binding; details: pH 7.5; DDM; 3 mM cardiolipin added; three lipids at dimer interface; 3.3 A
T1 construct: gene nhaA; from E. coli Lemo21(DE3); homodimer

[2] = target: T2, NHE9* (Equus caballus, UniProt F7B113); experiment: GFP-based thermal shift assay; format: binding; details: 0.1 mg/ml lipid; DDM, CHS, octyl glucoside; NHE9*-GFP fusion
T2 construct: gene SLC9A9; residues 8-575 of 644, C-terminally truncated; TEV-GFP-TwinStrep-His8 from S. cerevisiae FGY217; GFP kept for thermal shift, cut for cryo-EM; homodimer
T2 sequence (F7B113 8-575): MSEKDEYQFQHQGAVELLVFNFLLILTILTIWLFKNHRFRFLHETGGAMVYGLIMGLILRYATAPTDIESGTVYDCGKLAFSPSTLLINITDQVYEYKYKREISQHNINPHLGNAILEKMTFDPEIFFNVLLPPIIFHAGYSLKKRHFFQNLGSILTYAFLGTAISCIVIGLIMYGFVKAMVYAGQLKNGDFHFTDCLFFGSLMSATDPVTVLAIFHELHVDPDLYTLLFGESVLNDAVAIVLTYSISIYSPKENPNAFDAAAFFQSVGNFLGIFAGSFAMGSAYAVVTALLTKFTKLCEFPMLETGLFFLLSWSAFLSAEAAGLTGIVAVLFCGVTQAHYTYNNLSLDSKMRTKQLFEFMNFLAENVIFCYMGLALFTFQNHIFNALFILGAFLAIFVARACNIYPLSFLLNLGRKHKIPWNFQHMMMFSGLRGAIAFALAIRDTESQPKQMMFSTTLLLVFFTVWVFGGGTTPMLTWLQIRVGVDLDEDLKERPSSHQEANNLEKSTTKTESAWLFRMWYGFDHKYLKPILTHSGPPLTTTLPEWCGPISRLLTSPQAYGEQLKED

[3] = target: the molecule itself; experiment: cryo-EM structure; NHE9* at pH 6.5, 20 mM Mes-Tris, 150 mM NaCl, 0.003% LMNG, 0.0006% CHS; C2 symmetry; AlphaFold2 multimer model refined into a composite map
[4] = target: the molecule itself; experiment: cryo-EM structure; NHE9*CC purified with bovine brain lipid extract, 20 mM Tris-HCl pH 8, 150 mM NaCl, 0.003% LMNG, 0.0006% CHS; C2 symmetry; two PI(3,5)P2 modelled at the dimer interface
[5] = target: T3, E. coli NhaA WT-like triple mutant (A109T, Q277G, L296M) (E. coli), P13738; experiment: cryo-EM structure; NhaA triple-mutant-GFP fusion in DDM with 3 mM cardiolipin (18:1) added, 20 mM Tris-HCl pH 7.5, 150 mM NaCl, 0.03% DDM; three cardiolipins modelled at the dimer interface; details: remark: other sources report otherwise
T3 chain: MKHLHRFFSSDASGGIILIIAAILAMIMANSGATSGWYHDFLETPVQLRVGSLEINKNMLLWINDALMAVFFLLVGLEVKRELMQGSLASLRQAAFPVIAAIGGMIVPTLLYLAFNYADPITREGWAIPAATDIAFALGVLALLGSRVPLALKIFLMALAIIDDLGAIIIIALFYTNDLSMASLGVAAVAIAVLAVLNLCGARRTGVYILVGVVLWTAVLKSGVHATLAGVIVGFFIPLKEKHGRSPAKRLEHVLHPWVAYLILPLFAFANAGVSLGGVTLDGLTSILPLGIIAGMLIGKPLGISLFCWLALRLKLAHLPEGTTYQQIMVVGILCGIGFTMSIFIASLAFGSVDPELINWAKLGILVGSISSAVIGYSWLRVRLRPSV

In the case of CCCCCCCC/C=C\CCCCCCCC(=O)OC[C@H](COP(=O)(O)OCC(O)COP(=O)(O)OC[C@@H](COC(=O)CCCCCCC/C=C\CCCCCCCC)OC(=O)CCCCCCC/C=C\CCCCCCCC)OC(=O)CCCCCCC/C=C\CCCCCCCC (stereo partly drawn) [cardiolipin (18:1)], the cryo-EM structure [1] is reported as “map density supported the modelling of cardiolipin at the dimerization interface”.

CCCCCCCC(=O)OC[C@H](COP(=O)(O)O[C@@H]1[C@H](O)[C@H](O)[C@@H](OP(=O)(O)O)[C@H](OP(=O)(O)O)[C@H]1O)OC(=O)CCCCCCC [PI(4,5)P2 dioctanoyl] was tested, and the dTm [2] was 8 °C.

CCCCCCCCCCCCCCCC(=O)OC[C@H](COP(=O)(O)O[C@@H]1[C@H](O)[C@H](OP(=O)(O)O)[C@@H](O)[C@H](OP(=O)(O)O)[C@H]1O)OC(=O)CCCCCCCCCCCCCCC [PI(3,5)P2 dipalmitoyl] was tested, and the dTm [2] was 15 °C.

B1: E. caballus NHE9* (residues 8 to 575), tag removed (domain or fragment, Equus caballus, UniProt F7B113 8-575, looked up)
chain: MSEKDEYQFQHQGAVELLVFNFLLILTILTIWLFKNHRFRFLHETGGAMVYGLIMGLILRYATAPTDIESGTVYDCGKLAFSPSTLLINITDQVYEYKYKREISQHNINPHLGNAILEKMTFDPEIFFNVLLPPIIFHAGYSLKKRHFFQNLGSILTYAFLGTAISCIVIGLIMYGFVKAMVYAGQLKNGDFHFTDCLFFGSLMSATDPVTVLAIFHELHVDPDLYTLLFGESVLNDAVAIVLTYSISIYSPKENPNAFDAAAFFQSVGNFLGIFAGSFAMGSAYAVVTALLTKFTKLCEFPMLETGLFFLLSWSAFLSAEAAGLTGIVAVLFCGVTQAHYTYNNLSLDSKMRTKQLFEFMNFLAENVIFCYMGLALFTFQNHIFNALFILGAFLAIFVARACNIYPLSFLLNLGRKHKIPWNFQHMMMFSGLRGAIAFALAIRDTESQPKQMMFSTTLLLVFFTVWVFGGGTTPMLTWLQIRVGVDLDEDLKERPSSHQEANNLEKSTTKTESAWLFRMWYGFDHKYLKPILTHSGPPLTTTLPEWCGPISRLLTSPQAYGEQLKED
notes: Endosomal Na+/H+ exchanger NHE9 (SLC9A9), Equus caballus, partially truncated on the C-terminal tail, residues 8 to 575 out of a total of 644; also called SLC9A9; not shown: GFP, C-terminal, cleaved; TwinStrep, C-terminal, cleaved; His8, C-terminal, cleaved
For B1, the “stoichiometry N” value [3] was 2.

B2: E. caballus NHE9*CC (NHE9* L139C-I444C double mutant) (domain or fragment, Equus caballus, UniProt F7B113 8-575, looked up)
chain: MSEKDEYQFQHQGAVELLVFNFLLILTILTIWLFKNHRFRFLHETGGAMVYGLIMGLILRYATAPTDIESGTVYDCGKLAFSPSTLLINITDQVYEYKYKREISQHNINPHLGNAILEKMTFDPEIFFNVLCPPIIFHAGYSLKKRHFFQNLGSILTYAFLGTAISCIVIGLIMYGFVKAMVYAGQLKNGDFHFTDCLFFGSLMSATDPVTVLAIFHELHVDPDLYTLLFGESVLNDAVAIVLTYSISIYSPKENPNAFDAAAFFQSVGNFLGIFAGSFAMGSAYAVVTALLTKFTKLCEFPMLETGLFFLLSWSAFLSAEAAGLTGIVAVLFCGVTQAHYTYNNLSLDSKMRTKQLFEFMNFLAENVIFCYMGLALFTFQNHIFNALFILGAFLAIFVARACNIYPLSFLLNLGRKHKIPWNFQHMMMFSGLRGACAFALAIRDTESQPKQMMFSTTLLLVFFTVWVFGGGTTPMLTWLQIRVGVDLDEDLKERPSSHQEANNLEKSTTKTESAWLFRMWYGFDHKYLKPILTHSGPPLTTTLPEWCGPISRLLTSPQAYGEQLKED
notes: Endosomal Na+/H+ exchanger NHE9 (SLC9A9), Equus caballus, residues 8 to 575 out of a total of 644, with L139C and I444C; also called cysteine variant; not shown: GFP, C-terminal, cleaved; TwinStrep, C-terminal, cleaved; His8, C-terminal, cleaved
With B2 the “stoichiometry N” value [4] was 2.

B3: E. coli NhaA WT-like triple mutant (A109T, Q277G, L296M), P13738 1-388 (natural protein)
chain: MKHLHRFFSSDASGGIILIIAAILAMIMANSGATSGWYHDFLETPVQLRVGSLEINKNMLLWINDALMAVFFLLVGLEVKRELMQGSLASLRQAAFPVIAAIGGMIVPTLLYLAFNYADPITREGWAIPAATDIAFALGVLALLGSRVPLALKIFLMALAIIDDLGAIIIIALFYTNDLSMASLGVAAVAIAVLAVLNLCGARRTGVYILVGVVLWTAVLKSGVHATLAGVIVGFFIPLKEKHGRSPAKRLEHVLHPWVAYLILPLFAFANAGVSLGGVTLDGLTSILPLGIIAGMLIGKPLGISLFCWLALRLKLAHLPEGTTYQQIMVVGILCGIGFTMSIFIASLAFGSVDPELINWAKLGILVGSISSAVIGYSWLRVRLRPSV
For B3, the stoichiometry N [5] was 2.
